19 molecules from patent US5220050A, “Peptide mimetic compounds useful as platelet aggregation inhibitors” (G. D. Searle & Co., priority 1991, dated 1993) can be followed below.

Test [1] relates to Platelet Aggregation in Dog PRP. Kind of test: In-Vitro Platelet Aggregation in PRP (ADP induced). It counts as cell-based. To be noted: for IC50: Canis lupus familiaris, Platelet, in-vitro. As to the method: Healthy male or female dogs were fasted for 8 hours prior to drawing blood; then 30 ml whole blood was collected using a butterfly needle and 30 cc plastic syringe with 3 ml of 0.129 M buffered sodium citrate (3.8%). The syringe was rotated carefully as blood was drawn to mix the citrate. Platelet-rich plasma (PRP) was prepared by centrifugation at 975×g for 3.17 minutes at room temperature, allowing the centrifuge to coast to a stop without braking. The PRP was removed from the blood with a plastic pipette and placed in a plastic capped, 50 ml Corning conical sterile centrifuge tube which was held at room temperature. Platelet poor plasma (PPP) was prepared by centrifuging the remaining blood at 2000×g for 15 minutes at room temperature allowing the centrifuge to coast to a stop without braking. The PRP was adjusted with PPP to a count of 2-3×10^8 platelets per ml. 400 μl of the PRP preparation and 50 μl of the compound to be tested or saline were preincubated for 1 minute at 37° C. in a BioData aggregometer (BioData, Horsham, Pa.). 50 μl of adenosine 5'diphosphate (ADP) (50 μm final concentration) was added to the cuvettes and the aggregation was monitored for 1 minute. All compounds are tested in duplicate. Results are calculated as follows:
Percent of control=[(maximal OD minus initial OD of compound) divided by (maximal OD minus initial OD of control saline)]×100. The % inhibition=100-(percent of control).

The test system of test [2] is collagen induced platelet aggregation. Kind of test: Inhibition of ex vivo collagen induced aggregation after administration to dogs. It counts as in vivo, dogs (Beagles). The conditions noted are these: dog, intragastric or intravenous; for inhibition in vivo at 10 mg/kg / inhibition in vivo at 30 mg/kg / inhibition in vivo at 20 mg/kg: Canis lupus familiaris, Platelet, read-out: Max % Inhibition. As to the method: The purpose of this assay is to determine the effects of antiplatelet compounds on ex vivo collagen induced platelet aggregation when administered either intravenously or orally to dogs.
Pretreatment (control) blood samples are drawn from either conscious or anesthetized dogs (Beagles) and centrifuged to prepare platelet rich plasma (PRP). Aggregatory response to collagen is measured in an aggregometer and used as Control.
In Table B the designation "NT" means "Not Tested". Also in Table B, two readings given in a single box indicate that two trials, rather than a single trial, were run for that particular compound in that particular assay.

Structures can show the parent of a compound that is named as a salt.

What is called IC50 is the concentration at which inhibition is half-maximal. What is called % Inhibition is how much of the control response was suppressed. The low end stands for a weak effect, the high end for a strong effect.

For the molecule `CC(CC(=O)O)NC(=O)CCCCc1ccc(C(=N)N)cc1` (centres unmarked) [3-[[5-[4-(Aminoiminomethyl)phenyl]-1-oxopentyl]amino]butanoic acid], half-maximal inhibition in test [1] (IC50) required 1.2 µM. In test [2] (dose 10 mg/Kg), the inhibition in vivo at 10 mg/kg worked out at 80% and the Duration was determined as 5 h.

In test [1], `CCOC(=O)CC(C)NC(=O)CCCCc1ccc(C(=N)N)cc1` (centres unmarked) [Ethyl 3-[[5-[4-(aminoiminomethyl)phenyl]-1-oxopentyl]amino]butanoate] came in with a concentration for half-maximal inhibition (IC50) of 5 µM. In addition, the inhibition in vivo at 10 mg/kg in test [2] (dose 10 mg/Kg) was determined as 90%. In test [2] (dose 30 mg/Kg), the inhibition in vivo at 30 mg/kg was 100% and the Duration is > 24 h.

On to `CCOC(=O)CC(NC(=O)CCCCc1ccc(C(=N)N)cc1)c1ccccc1` (stereo not drawn) [Ethyl β-[[5-[4-(aminoiminomethyl)phenyl]-1-oxopentyl]amino]benzenepropanoate], for which, in test [1], the IC50 is 5.3 µM. Besides, the inhibition in vivo at 10 mg/kg in test [2] (dose 10 mg/Kg) was 83%. Further, in test [2] (dose 30 mg/Kg), the inhibition in vivo at 30 mg/kg is 100% and the Duration was > 24 h.

In turn, `N=C(N)c1ccc(CCCCC(=O)NC(CC(=O)OC2CCCCC2)c2cccnc2)cc1` (stereo not drawn) [cyclohexyl β-[[5-[4-(aminoiminomethyl)phenyl]-1-oxopentyl]amino]-3-pyridinepropanoate] returned an IC50 in test [1] of 2.3 µM. In test [2] (dose 10 mg/Kg), the inhibition in vivo at 10 mg/kg was 87% and the Duration stood at 3 h.

For the molecule `C=CC(CC(=O)OCC)NC(=O)CCCCc1ccc(C(=N)N)cc1` (centres unmarked) [ethyl 3-[[5-[4-(aminoiminomethyl)phenyl]-1-oxopentyl]amino]-4-pentenoate], the inhibition in vivo at 30 mg/kg in test [2] (dose 30 mg/Kg) was 100%.

Regarding `CCOC(=O)CC(CC(C)C)NC(=O)CCCCc1ccc(C(=N)N)cc1` (centres unmarked) [ethyl 3-[[5-[4-(aminoiminomethyl)phenyl]-1-oxopentyl]amino]-5-methylhexanoate], in test [2] (dose 30 mg/Kg), the inhibition in vivo at 30 mg/kg amounted to 100% and the Duration was > 6 h.

Consider `CCOC(=O)CC(NC(=O)CCCCc1ccc(C(=N)N)cc1)c1ccc2c(c1)OCO2` (stereo not drawn) [ethyl β-[[5-[4-(aminoiminomethyl)phenyl]-1-oxopentyl]amino]-1,3-benzodioxole-5-propanoate], for which, in test [2] (dose 10 mg/Kg), the inhibition in vivo at 10 mg/kg was 100% and the Duration came out at 5 h.

Consider `CCOC(=O)CC(NC(=O)CCCCc1ccc(C(=N)N)cc1)c1cc(OC)cc(OC)c1` (stereo not drawn) [ethyl β-[[5-[4-(aminoiminomethyl)phenyl]-1-oxopentyl]amino]-3,5-dimethoxybenzenepropanoate], for which, in test [2] (dose 20 mg/Kg), the inhibition in vivo at 20 mg/kg worked out at 70% and the Duration came to 4 h.

Regarding `CCOC(=O)CC(NC(=O)CCCCc1ccc(C(=N)N)cc1)c1cccnc1` (stereo not drawn) [ethyl β-[[5-[4-(aminoiminomethyl)phenyl]-1-oxopentyl]amino]-3-pyridinepropanoate], the inhibition in vivo at 10 mg/kg in test [2] (dose 10 mg/Kg) was 100%. Moreover, in test [2] (dose 20 mg/Kg), the inhibition in vivo at 20 mg/kg is 100% and the Duration is > 24 h.

`CCOC(=O)CC(NC(=O)CCCCc1ccc(C(=N)N)cc1)c1ccc(OCC)cc1` (stereo not drawn) [ethyl β-[[5-[4-(aminoiminomethyl)phenyl]-1-oxopentyl]amino]-4-ethoxybenzenepropanoate]: in test [2] (dose 20 mg/Kg), the inhibition in vivo at 20 mg/kg was found to be 0% and the Duration amounted to 0 h.

On to `CCOC(=O)CC(NC(=O)CCCCc1ccc(C(=N)N)cc1)c1ccc(-c2ccccc2)cc1` (stereo not drawn) [ethyl β-[[5-[4-(aminoiminomethyl)phenyl]-1-oxopentyl]amino][1,1'-biphenyl]-4-propanoate], for which the inhibition in vivo at 30 mg/kg in test [2] (dose 30 mg/Kg) worked out at 0%.

Take `CCOC(=O)CC(Cc1ccccc1)NC(=O)CCCCc1ccc(C(=N)N)cc1` (stereo not drawn) [ethyl β-[[5-[4-(aminoiminomethyl)phenyl]-1-oxopentyl]amino]benzenebutanoate]: in test [2] (dose 20 mg/Kg), the inhibition in vivo at 20 mg/kg stood at 30% and the Duration amounted to 1.5 h.

Take `CCOC(=O)CC(CCc1ccccc1)NC(=O)CCCCc1ccc(C(=N)N)cc1` (stereo not drawn) [ethyl β-[[5-[4-(aminoiminomethyl)phenyl]-1-oxopentyl]amino]benzenepentanoate]: the inhibition in vivo at 30 mg/kg in test [2] (dose 30 mg/Kg) amounted to 0%.

As for `N=C(N)c1ccc(CCCCC(=O)NC(CC(=O)O)c2ccccc2)cc1` (stereo not drawn) [β-[[5-4-(aminoiminomethyl)phenyl]-1-oxopentyl]amino]benzenepropanoic acid, acetate salt], the IC50 in test [1] was found to be 5.3 µM. For the same molecule, in test [2] (dose 30 mg/Kg), the inhibition in vivo at 30 mg/kg turned out to be 34% and the Duration is < 2 h.

As for `N=C(N)c1ccc(CCCCC(=O)NC(CC(=O)O)c2ccc(O)cc2)cc1` (stereo not drawn) [β-[[5-[4-(aminoiminomethyl)phenyl]-1-oxopentyl]amino]-4-hydroxybenzenepropanoic acid], in test [1], the IC50 amounted to 0.8 µM.

`N=C(N)c1ccc(CCCCC(=O)NC(CC(=O)O)c2ccc(Oc3ccccc3)cc2)cc1` (stereo not drawn) [β-[[5-[4-(aminoiminomethyl)phenyl]-1-oxopentyl]amino]-4-phenoxybenzenepropanoic acid]: the IC50 in test [1] is 2 µM.

With `N=C(N)c1ccc(CCCCC(=O)NC(CCCCc2ccccc2)CC(=O)O)cc1` (stereo not drawn) [β-[[5-[4-(aminoiminomethyl)phenyl]-1-oxopentyl]amino]benzeneheptanoic acid], it took 7.1 µM to reach half-maximal inhibition in test [1] (IC50). This IC50 is about 3.5-fold higher than that of the molecule before.

In turn, `N=C(N)c1ccc(CCCCC(=O)NC(CCc2ccccc2)CC(=O)O)cc1` (stereo not drawn) [β-[[5-[4-(aminoiminomethyl)phenyl]-1-oxopentyl]amino]benzenepentanoic acid] returned an IC50 in test [1] of 3 µM. This IC50 is about 2.4-fold lower than that of the molecule before.

For “βR-[[5-[4-(aminoiminomethyl)phenyl]-1-oxopentyl]amino]-1-naphthalenebutanoic acid”, in test [1] (test concentration 1 × 10^-5), the “% Inhibition” value is given as 5%.
